Measurements reported in article PMC6685669, “Mapping the Structural Path for Allosteric Inhibition of a Short-Form ATP Phosphoribosyltransferase by Histidine” (Biochemistry, 2019).

What was measured:
PaATPPRT [1] = target: T1, PaATPPRT (Psychrobacter arcticus, UniProt Q4FQF7+Q4FTX3); format: biochemical; conditions: ADP replacing ATP as substrate, 20 °C
T1 construct: made in house

PaHisZ = target: T2, PaHisZ (Psychrobacter arcticus, UniProt Q4FTX3); experiment: Differential scanning fluorimetry (DSF), thermal denaturation of PaHisZ; format: binding
T2 construct: made in house
T2 sequence (Q4FTX3 whole entry): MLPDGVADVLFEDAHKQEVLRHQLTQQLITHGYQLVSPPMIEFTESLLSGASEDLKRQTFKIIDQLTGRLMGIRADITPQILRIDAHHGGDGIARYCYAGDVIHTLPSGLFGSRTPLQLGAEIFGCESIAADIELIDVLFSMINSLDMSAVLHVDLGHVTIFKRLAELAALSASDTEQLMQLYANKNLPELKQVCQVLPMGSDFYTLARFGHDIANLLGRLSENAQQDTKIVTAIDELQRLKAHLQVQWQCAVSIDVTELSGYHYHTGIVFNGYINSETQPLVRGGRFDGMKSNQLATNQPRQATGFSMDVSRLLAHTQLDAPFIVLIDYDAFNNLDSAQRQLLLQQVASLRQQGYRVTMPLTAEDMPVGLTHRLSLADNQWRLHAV
Procedure: DSF measurements (λex = 490 nm; λem = 610 nm) were performed in 96-well plates on a Stratagene Mx3005p instrument. Thermal denaturation of 9.4 μM PaHisZ was assayed (50 μL) in the presence of several histidine concentrations (0–8 mM) in 100 mM tricine, 100 mM KCl, 4 mM DTT, and 15 mM MgCl2 (pH 8.5). Sypro Orange (5×) (Invitrogen) was added to all wells. Thermal denaturation curves were recorded over a temperature range of 25–65 °C with 1 °C min^–1 increments. Control curves without the enzyme and were subtracted from curves with the enzyme. All measurements were carried out in quintuplicate.
Kinetic and DSF data were analyzed by the nonlinear regression function of SigmaPlot 13 (SPSS Inc.). Data points and error bars in graphs are represented as means ± the standard error, and kinetic and equilibrium constants are presented as means ± the fitting error. Substrate saturation data were fitted to eq 1. Inhibition data at fixed substrate concentrations were fitted to eq 2, and inhibition mechanism data were fitted to eq 3. […]

Y263F-PaATPPRT = target: T3, Y263F-PaATPPRT (Psychrobacter arcticus, UniProt Q4FQF7+Q4FTX3, Y263F); experiment: Y263F-PaHisZ-based PaATPPRT activity assay, initial rates with and without histidine; format: biochemical
T3 construct: made in house
T3 sequence (Q4FQF7 whole entry): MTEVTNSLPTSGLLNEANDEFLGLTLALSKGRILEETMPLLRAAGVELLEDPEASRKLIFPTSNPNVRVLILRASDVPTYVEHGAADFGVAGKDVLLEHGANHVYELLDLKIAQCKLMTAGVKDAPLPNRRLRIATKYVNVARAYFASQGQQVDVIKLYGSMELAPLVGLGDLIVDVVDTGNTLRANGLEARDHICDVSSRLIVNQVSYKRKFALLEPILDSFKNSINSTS
T3 sequence (Q4FTX3 whole entry Y263F): as the sequence (Q4FTX3 whole entry) above, with Y263F counted along it
Source text: Replacement of tyrosine for phenylalanine at position 263 of PaHisZ was accomplished by the method of Liu and Naismith,[29] with primers 5′-[…]-3′ and 5′-[…]-3′. Successful mutation was confirmed by DNA sequencing (Eurofins Genomics). Y263F-PaHisZ was expressed and purified by the same protocol reported for wild-type (WT) PaHisZ.[20] ESI/MS analysis of the protein yielded a mass of 43068.9, exactly what would be expected by the loss of a hydroxyl group when compared with the mass of WT-PaHisZ.[20] Y263F-PaHisZ-based PaATPPRT was assayed for catalytic activity under initial rate conditions at 20 °C in the presence of 5.6 mM ATP and 2 mM PRPP and in the presence or absence of 320 μM histidine, along with other reaction components exactly as described for WT-PaATPPRT. Measurements were carried out in duplicate.

PaATPPRT [2] = target: T1, PaATPPRT; experiment: PaATPPRT activity assay, initial rates (absorbance at 290 nm, PRATP formation), inhibition by histidine; format: biochemical; conditions: for Kii: linear regression of intercept replot of individually fitted double-reciprocal curves
Procedure: All assays were performed under initial rate conditions in the forward direction at 20 °C, in the presence or absence of histidine, as previously described[20] by monitoring the increase in absorbance at 290 nm due to the formation of PRATP (ε290 = 3600 M^–1 cm^–1)[23] in 1 cm path length quartz cuvettes (Hellma) in a Shimadzu UV-2600 spectrophotometer. Unless stated otherwise, for PaHisGS activity, the PaHisGS concentration was typically 2 μM, and for PaATPPRT activity, PaHisGS and PaHisZ concentrations were 0.28 and 15 μM, respectively. Reactions were started by addition of PRPP. Control reaction mixtures lacked either ATP, PRPP, PaHisGS, or PaHisZ. […] Initial rates were also measured with saturating concentrations of both substrates in the presence or absence of 4 mM TIH. All kinetic measurements were performed at least in duplicate unless stated otherwise.
The half-maximal inhibitory concentration of histidine was determined by measuring the initial rates for PaATPPRT (0.24 μM) in the presence of 5.6 mM ATP (or 5.6 mM ADP), 2 mM PRPP, and varying concentrations of histidine (0–320 μM). The inhibition mechanism was investigated by measuring the initial rates for PaATPPRT (0.28 μM) at saturating concentrations of one substrate and varying concentrations of the other, either ATP (0.2–2.8 mM) or PRPP (0.1–2.0 mM), with different concentrations of histidine (0–10 μM). In some instances, the lowest-concentration data point was an outlier in the double-reciprocal plot and was excluded from the fit.
Kinetic and DSF data were analyzed by the nonlinear regression function of SigmaPlot 13 (SPSS Inc.). Data points and error bars in graphs are represented as means ± the standard error, and kinetic and equilibrium constants are presented as means ± the fitting error. Substrate saturation data were fitted to eq 1. Inhibition data at fixed substrate concentrations were fitted to eq 2, and inhibition mechanism data were fitted to eq 3. In eqs 1–3, v is the initial rate, S is the concentration of the varying substrate, kcat is the steady-state turnover number, KM is the apparent Michaelis constant, ET is total enzyme concentration, vi is the initial rate in the presence of an inhibitor, IC50 is the half-maximal inhibitory concentration, h is the Hill slope, Kis is the slope inhibition constant, and Kii is the intercept inhibition constant. DSF thermal denaturation data were fitted to eq 4,[30] and PaHisZ–histidine complex equilibrium dissociation data were fitted to eq 5. In eqs 4 and 5, FU is the fraction unfolded, T is the temperature in degrees Celsius, Tm is the melting temperature, c is the slope of the transition region, LL and UL are folded and unfolded baselines, respectively, Tm0 is the Tm in the absence of histidine, Tm∞ is the Tm at an infinite histidine concentration, H is the histidine concentration, and KD is the apparent equilibrium dissociation constant for the PaHisZ–histidine complex.

PaATPPRT [3] = target: T1, PaATPPRT; experiment: Rapid kinetics (stopped-flow), approach to steady state in the PaATPPRT reaction; format: biochemical
Procedure: Rapid kinetics experiments were carried out under multiple-turnover conditions by monitoring the increase in absorbance at 290 nm upon PRATP formation at 20 °C in an Applied Photophysics SX-20 stopped-flow spectrophotometer outfitted with a 5 μL mixing cell (0.5 cm path length and 0.9 ms dead time). In all experiments, each syringe contained 100 mM tricine (pH 8.5), 100 mM KCl, 4 mM DTT, 15 mM MgCl2, and 10 μM MtPPase. For the approach to steady state in the PaATPPRT reaction, one syringe carried 38 μM PaATPPRT, 4 mM PRPP, and either 0 or 60 μM histidine, while the other carried 7 mM ATP and either 0 or 60 μM histidine. Reaction was triggered by rapidly mixing 55 μL from each syringe. The increase in absorbance was monitored in a split-time base for 1 s, with 2500 data points collected before 0.2 s and 2500 in the following 0.8 s. At least four traces were acquired for each reaction, and controls lacked PRPP. For initial rates of PaATPPRT and PaHisGS reactions, one syringe carried either 2–4 μM PaHisGS or 4 μM PaATPPRT, 4 mM PRPP, and either 0 or 1.28 mM histidine, while the other carried 11.2 mM ATP. Reaction was triggered by rapidly mixing 55 μL from each syringe. The increase in absorbance was monitored in a linear-time base for 10 s. At least four traces were acquired for each reaction, with 1000 data points collected per trace. Controls lacked PRPP.

PaHisGS = system: PaHisGS; design: method as in PMID 28092443; conditions: PaHisGS in the absence of PaHisZ; cited from earlier work
[4] = ATP and histidine (60 μM in syringe) rapidly mixed with PaATPPRT preincubated with PRPP
[5] = ATP rapidly mixed with PaATPPRT preincubated with PRPP and histidine (60 μM in syringe)

T1 sequence (Q4FTX3 whole entry): as the sequence (Q4FTX3 whole entry) above
T1 sequence (Q4FQF7 whole entry): as the sequence (Q4FQF7 whole entry) above

Nc1ncnc2c1ncn2[C@@H]1O[C@H](COP(=O)(O)OP(=O)(O)O)[C@@H](O)[C@H]1O [ADP, adenosine 5′-diphosphate]
kcat (PaATPPRT [1]): 2.6 ± 0.4 s^–1

N[C@@H](Cc1c[nH]cn1)C(=O)O [Histidine, L-histidine]
Kd (PaHisZ; free PaHisZ 9.4 μM, Tm dependence on histidine 0–8 mM, fit to eq 5, read-out: KD (apparent equilibrium dissociation constant, PaHisZ–histidine complex)): 2800 ± 800 µM | effect on Tm of PaHisZ (PaHisZ; free PaHisZ, histidine 0–8 mM): increases | vi/v0 (ratio of initial rates in presence and absence of inhibitor) (Y263F-PaATPPRT; 320 μM histidine, 5.6 mM ATP, 2 mM PRPP, 20 °C): 0.250 ± 0.001 | susceptibility to inhibition, Y263F-PaATPPRT less susceptible than WT-PaATPPRT (Y263F-PaATPPRT; 320 μM histidine, from vi/v0 of mutant and WT): > 3 fold | inhibition at 320 µM (Y263F-PaATPPRT; read-out: enzyme activity lost due to histidine inhibition): 75% | h (Hill slope) (PaATPPRT [2]; 5.6 mM ATP, 2 mM PRPP, 20 °C, fit to eq 2): 1.30 ± 0.04 | h (Hill slope) (PaATPPRT [2]; ADP (5.6 mM) as the substrate, 2 mM PRPP): 1.32 ± 0.09 | IC50 (PaATPPRT [2]; IC50, 5.6 mM ATP, 2 mM PRPP, 20 °C, fit to eq 2): 35.5 ± 0.8 µM | IC50 (PaATPPRT [2]; IC50, ADP (5.6 mM) as the substrate, 2 mM PRPP): 31 ± 1 µM | Ki (PaATPPRT [2]; Kis (slope inhibition constant), against ATP, global fit to eq 3): 56 ± 25 µM | Ki (PaATPPRT [2]; Kis (slope inhibition constant), against PRPP, global fit to eq 3): 22 ± 6 µM | Ki (PaATPPRT [2]; Kis, against ATP, linear regression of slope replot of individually fitted double-reciprocal curves): 60 µM | Ki (PaATPPRT [2]; Kis, against PRPP, linear regression of slope replot of individually fitted double-reciprocal curves): 30 µM | vi/v0 (ratio of initial rates in presence and absence of inhibitor) (PaATPPRT [2]; WT-PaATPPRT, 320 μM histidine, 5.6 mM ATP, 2 mM PRPP, 20 °C): 0.070 ± 0.004 | Kii (intercept inhibition constant) (PaATPPRT [2]; against ATP, global fit to eq 3): 36 ± 5 µM | Kii (PaATPPRT [2]; against ATP): 40 µM | Kii (intercept inhibition constant) (PaATPPRT [2]; against PRPP, global fit to eq 3): 38 ± 7 µM | Kii (PaATPPRT [2]; against PRPP): 26 µM | inhibition mechanism (PaATPPRT [2]; against both substrates (PRPP and ATP)): noncompetitive | amplitude of the burst phase (PaATPPRT [3]; [4]): 3.49 ± 0.01 µM | steady-state rate (PaATPPRT [3]; [4]): 7.56 ± 0.01 μM s^–1 | burst amplitude (PaATPPRT [3]; [5]): 0.53 ± 0.01 µM | steady-state rate (PaATPPRT [3]; [5]): 7.83 ± 0.01 μM s^–1 | sensitivity of PaHisGS to histidine (PaHisGS): insensitive

N[C@@H](Cc1cccs1)C(=O)O [TIH, 3-(2-thienyl)-L-alanine]
effect on PaATPPRT catalysis (PaATPPRT [2]; 4 mM TIH, saturating concentrations of both substrates): no effect
